Type in all cases: cell-based
Assay [1] has as its target T1, Endothelin receptor type B (Homo sapiens, UniProt P24530).
T1 sequence (P24530 whole entry): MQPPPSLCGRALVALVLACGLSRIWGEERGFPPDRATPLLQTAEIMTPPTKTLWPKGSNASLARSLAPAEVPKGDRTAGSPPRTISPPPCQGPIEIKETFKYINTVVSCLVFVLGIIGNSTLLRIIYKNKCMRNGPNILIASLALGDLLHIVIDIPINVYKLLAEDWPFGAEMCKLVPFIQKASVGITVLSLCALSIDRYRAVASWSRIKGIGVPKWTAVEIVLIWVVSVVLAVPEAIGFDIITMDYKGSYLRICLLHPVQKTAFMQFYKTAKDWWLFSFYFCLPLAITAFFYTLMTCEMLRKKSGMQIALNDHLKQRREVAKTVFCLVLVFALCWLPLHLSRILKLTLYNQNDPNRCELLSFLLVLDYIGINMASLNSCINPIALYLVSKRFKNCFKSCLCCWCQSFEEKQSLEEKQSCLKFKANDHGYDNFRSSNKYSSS
The assay can be described thus: Inhibition of binding of [125I]ET1 to cloned human Endothelin B receptor expressed in CHO-K1 cells up to 200 uM; non significant.

Assay [2] addresses T2, Endothelin-1 receptor (Homo sapiens, UniProt P25101).
T2 sequence (P25101 whole entry): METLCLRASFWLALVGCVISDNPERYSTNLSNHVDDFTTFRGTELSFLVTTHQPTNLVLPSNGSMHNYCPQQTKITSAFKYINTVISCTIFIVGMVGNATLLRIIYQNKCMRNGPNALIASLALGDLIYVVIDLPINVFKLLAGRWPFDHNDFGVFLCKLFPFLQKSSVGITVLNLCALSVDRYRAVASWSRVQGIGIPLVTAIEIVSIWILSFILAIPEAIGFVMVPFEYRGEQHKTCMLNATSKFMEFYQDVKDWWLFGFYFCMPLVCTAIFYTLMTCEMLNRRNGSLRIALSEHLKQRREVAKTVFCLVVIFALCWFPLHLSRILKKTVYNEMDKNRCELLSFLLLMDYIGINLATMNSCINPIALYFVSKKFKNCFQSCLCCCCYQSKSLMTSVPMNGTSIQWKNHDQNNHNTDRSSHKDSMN
Description: Inhibition of binding of [125I]ET1 to cloned human Endothelin A receptor expressed in LtK- cells.

For assay [3], the target named is T1, Endothelin receptor type B. The assay can be described thus: Compound was tested for inhibition of binding of [125I]ET1 to cloned human Endothelin B receptor expressed in CHO-K1 cells.

As for `COC(=O)C(Cc1ccc2c(c1)OCO2)c1c2ccccc2nc2ccccc12` (centres undefined), the IC50 result was “Not Active” in assay [1] and over 25 µM in assay [2]. Regarding `NC(=O)C(c1ccc2c(c1)OCO2)c1c2ccccc2nc2ccccc12` (centres undefined), the IC50 entry in assay [1] is recorded as “Not Active”.

On to `COC(=O)C(c1ccc(Cl)cc1)c1c2ccccc2nc2ccccc12` (centres undefined), for which the IC50 entry in assay [1] is “Not Active”; in assay [2], over 25 µM. In the case of `OCC(c1ccc2c(c1)OCO2)c1c2ccccc2nc2ccccc12` (centres undefined), the figures for the IC50 result in assay [1] and in assay [2] were “Not Active” and 0.9 µM, respectively. With `CC(C)(C)OC(=O)C(c1ccc2c(c1)OCO2)c1c2ccccc2nc2ccccc12` (centres undefined), the 50% inhibitory concentration (IC50) entry in assay [1] is reported as “Not Active”. Consider `COc1ccc(COC(=O)C(c2ccc3c(c2)OCO3)c2c3ccccc3nc3ccccc23)cc1` (centres undefined), for which, in assay [1], the IC50 result is recorded as “Not Active”. On to `O=C(OCc1ccc(Cl)cc1)C(c1ccc2c(c1)OCO2)c1c2ccccc2nc2ccccc12` (centres undefined), for which the IC50 entry in assay [1] is “Not Active”; in assay [2], over 25 µM. Turning to `COC(=O)C(c1ccc2c(c1)OCO2)c1c2ccccc2[n+]([O-])c2ccccc12` (centres undefined), the IC50 result in assay [1] is “Not Active”; in assay [2], over 25 µM. As for `COC(=O)C(c1ccc2c(c1)OCO2)c1c2c(nc3ccccc13)CCCC2` (centres undefined), in assay [1], the IC50 result is reported as “Not Active”.

Consider `COC(=O)C(c1ccc(OC)c(OC)c1)c1c2ccccc2nc2ccccc12` (centres undefined), for which the IC50 entry in assay [1] was “Not Active”; in assay [2], over 25 µM. With `COC(=O)C(c1ccc2c(c1)OCO2)C1c2ccccc2CCc2ccccc21` (centres undefined), the IC50 entry in assay [1] is “Not Active”; in assay [2], over 25 µM. As to `O=CC(c1ccc2c(c1)OCO2)c1c2ccccc2nc2ccccc12` (centres undefined), the IC50 entry in assay [1] is “Not Active”. Take `COC(=O)C(c1ccc2c(c1)OCO2)c1cc(C)nc2ccccc12` (centres undefined): the IC50 result was “Not Active” in assay [1] and 61 µM in assay [2]. `COC(=O)C(c1ccc2c(c1)OC(C)(C)O2)c1c2ccccc2nc2ccccc12` (centres undefined): the half-maximal inhibitory concentration (IC50) entry in assay [1] is “Not Active”; in assay [2], over 25 µM.

`COC(=O)C(c1ccc([N+](=O)[O-])cc1)c1c2ccccc2nc2ccccc12` (centres undefined): the IC50 entry in assay [1] was “Not Active”; in assay [2], over 25 µM.

Turning to `COC(=O)C(c1ccc2c(c1)OCO2)c1cc(-c2ccccc2)nc2ccccc12` (centres undefined), the figures for the IC50 entry in assay [1] and in assay [2] were “Not Active” and over 25 µM, respectively. As for `COC(=O)C(Cc1c2ccccc2cc2ccccc12)c1ccc2c(c1)OCO2` (centres undefined), the half-inhibitory concentration (IC50) entry was “Not Active” in assay [1] and 76 µM in assay [2]. Take `COC(=O)C(c1ccc(Cl)c(Cl)c1)c1c2ccccc2nc2ccccc12` (centres undefined): the IC50 entry in assay [1] is “Not Active”; in assay [2], over 25 µM.

In the case of `Cc1cc(C(C(N)=O)c2ccc3c(c2)OCO3)c2ccccc2n1` (centres undefined), the IC50 entry in assay [1] is “Not Active”; in assay [2], 37 µM. The matching figures for `COC(=O)C(c1ccc2c(c1)OCO2)C(c1ccccc1)c1ccccc1` (centres undefined): “Not Active” and over 25 µM. In the case of `COC(=O)C(c1ccc2c(c1)OCO2)c1c2ccccc2nc2c(OC)c(OC)ccc12` (centres undefined), the IC50 entry is “Not Active” in assay [1] and over 25 µM in assay [2]. Regarding `O=C(OCc1ccc2c(c1)OCO2)C(c1ccc2c(c1)OCO2)c1c2ccccc2nc2ccccc12` (centres undefined), the IC50 entry in assay [1] was “Not Active”; in assay [2] it was 33 µM. Regarding `COC(=O)C(c1ccc(OC)cc1)c1c2ccccc2nc2ccccc12` (centres undefined), the IC50 entry is “Not Active” in assay [1] and over 25 µM in assay [2].

Take `O=C(OCc1ccccc1)C(c1ccc2c(c1)OCO2)c1c2ccccc2nc2ccccc12` (centres undefined): the values for the IC50 entry in assay [1] and in assay [2] were “Not Active” and 57 µM, respectively. Regarding `CC(C)(C)c1ccc(COC(=O)C(c2ccc3c(c2)OCO3)c2c3ccccc3nc3ccccc23)cc1` (centres undefined), the values for the 50% inhibitory concentration (IC50) entry in assay [1] and in assay [2] were “Not Active” and over 25 µM, respectively.

Compound `COC(=O)C(c1ccc2c(c1)OCO2)c1c2ccccc2nc2ccccc12` (centres undefined) returned an IC50 in assay [3] of over 250 µM.

Regarding `COC(=O)C(Oc1c2ccccc2nc2ccccc12)c1ccc2c(c1)OCO2` (centres undefined), the half-maximal inhibitory concentration (IC50) entry in assay [1] was “Not Active”. For `c1ccc2c(Cc3ccc4c(c3)OCO4)c3ccccc3nc2c1`, the figures for the half-inhibitory concentration (IC50) result in assay [1] and in assay [2] were “Not Active” and over 25 µM, respectively.

Usually IC50 stands for the concentration that inhibits the measured activity by half.

The record behind these values is ChEMBL document CHEMBL1128950, “Synthesis and structure-activity relationships of 9-substituted acridines as endothelin-A receptor antagonists” (Bioorg Med Chem Lett, 1996).
